This assay is described as follows: Tritiated Sulfonamide Binding to Membranes: isolated from cells that heterologously express hNav1.7 and the β1 subunit Preparation of membranes containing recombinantly expressed sodium channels: Frozen recombinant cell pellets were thawed on ice and diluted to 4 times the cell pellet weight with ice cold 50 mM Tris HCl, pH 7.4 buffer. The cell suspensions were homogenized on ice using a motorized glass dounce homogeniser. Homogenates were further diluted 8.4 times with ice cold 50 mM Tris HCl, pH 7.4 buffer and then centrifuged at 200×g at 4° C. for 15 min. The supernatants were collected and centrifuged at 10000×g at 4° C. for 50 min. The pellets were then re-suspended in 100 mM NaCl, 20 mM Tris HCl, pH 7.4 buffer containing 1% v/v protease inhibitors (Calbiochem) and re-homogenized on ice. The homogenized membranes were then processed through a syringe equipped with a 26 gauge needle. Protein concentrations were determined by Bradford Assay and the membranes were stored at −80° C.Radioligand Binding Studies:Saturation experiments. A representative compound of formula (I) having a methyl group was tritiated. Three tritiums were incorporated in place of methyl hydrogens to generate [3H]compound. Binding of this radioligand was preformed in 5 mL borosilicate glass test tubes at room temperature. Binding was initiated by adding membranes to increasing concentrations of [3H]compound in 100 mM NaCl, 20 mM Tris HCl, pH 7.4 buffer containing 0.01% w/v bovine serum albumin (BSA) for 18 h. Non-specific binding was determined in the presence of 1 μM unlabelled compound. After 18 h, the reactants were filtered through GF/C glass fiber filters presoaked in 0.5% w/v polyethylene imine. Filters were washed with 15 mL ice cold 100 mM NaCl, 20 mM Tris HCl, pH7.4 buffer containing 0.25% BSA to separate bound from free ligand. [3H]compound bound to filters was quantified by liquid scintillation counting.Competitive Binding Experiments:Binding reactions were preformed in 96-well polypropylene plates at room temperature for 18 h. In 360 μL, membranes were incubated with 100 pM [3H]compound and increasing concentrations of Test Compound. Non-specific binding was defined in the presence of 1 μM unlabelled compound. Reactions were transferred and filtered through 96-well glass fiber/C filter plates presoaked with 0.5% polyethylene imine. The filtered reactions were washed 5 times with 200 μL ice cold buffer containing 0.25% BSA. Bound radioactivity was determined by liquid scintillation counting.Data Analysis: For saturation experiments, non-specific binding was subtracted from total binding to provide specific binding and these values were recalculated in terms of pmol ligand bound per mg protein. Saturation curves were constructed and dissociation constants were calculated using the single site ligand binding model: Beq=(Bmax*X)/(X+Kd), where Beq is the amount of ligand bound at equilibrium, Bmax is the maximum receptor density, Kd is the dissociation constant for the ligand, and X is the free ligand concentration. For competition studies percent inhibition was determined and IC50 values were calculated using a 4 parameter logistic model (% inhibition=(A+((B−A)/(1+((x/C)^D)))) using XLfit, where A and B are the maximal and minimum inhibition respectively, C is the IC50 concentration and D is the (Hill) slope.
The IC50 is the concentration at which inhibition is half-maximal. Take `CC(C)Oc1ncc(Oc2cc(F)c(C(=O)NS(=N)(=O)C3CC3)cc2Cl)cc1Cl` (centres undefined): the IC50 was 18.1 nM. For `N=S(=O)(NC(=O)c1cc(F)c(Oc2ccc(OC(F)(F)F)c(Cl)c2)cc1F)C1CC1` (centres undefined), the IC50 was 238 nM. For `N=S(=O)(NC(=O)c1cc(C2CC2)c(O[C@@H]2CCCN(Cc3c(Cl)cccc3Cl)C2)cc1F)C1CC1` (some centres undefined), the IC50 was 2290 nM.

Consider `COc1cc(C(=O)NS(=N)(=O)C2CC2)c(F)cc1OCC12CC3CC(CC(C3)C1)C2` (centres undefined), for which the IC50 is 210 nM.

Consider `N=S(=O)(NC(=O)c1cc(C2CC2)c(COc2cc(F)cc(C(F)(F)F)c2)cc1F)C1CC1` (centres undefined), for which the IC50 is 14.2 nM. Regarding `N=S(=O)(NC(=O)c1cc(C2CC2)c(OCC23CC4CC(CC(C4)C2)C3)cc1F)N1CCC1` (centres undefined), the IC50 is 80.9 nM. For `C[C@@H](c1cc(Cl)cc(Cl)c1)N1CCC(COc2cc(F)c(C(=O)NS(=N)(=O)C3CC3)cc2C2CC2)CC1` (some centres undefined) the value was 92.5 nM; for `N=S(=O)(NC(=O)c1cc(Cl)c(Oc2cnc(OCC(F)(F)C(F)F)c(Cl)c2)cc1F)N1CCC1` (centres undefined), 159 nM.

`N=S(=O)(NC(=O)c1cc(C2CC2)c(OCC2(F)CCN(Cc3cc(C(F)(F)F)cc(Cl)c3F)CC2)cc1F)C1CC1` (centres undefined): the IC50 was 182 nM. `C[C@@H](c1cc(Cl)cc(Cl)c1)N1CCC(COc2ccc(C(=O)NS(=N)(=O)C3CC3)cc2C2CC2)CC1` (some centres undefined): the IC50 was 616 nM. Regarding `COc1ncccc1-c1cc(C(=O)NS(=N)(=O)C2CC2)c(F)cc1Oc1cnc(OC(C)C)c(Cl)c1` (centres undefined), the IC50 is 19.8 nM.

Take `N=S(=O)(NC(=O)c1cc(Cl)c(Oc2cnc(OCC(F)(F)C(F)F)c(Cl)c2)cc1F)C1CC1` (centres undefined): the IC50 is 23.8 nM. For `N=S(=O)(NC(=O)c1cc(Cl)c(Oc2cnc(OCC(F)(F)F)c(Cl)c2)cc1F)C1CC1` (centres undefined), the half-maximal inhibitory concentration (IC50) is 23.6 nM. For the compound `N=S(=O)(NC(=O)c1cc(C2CC2)c(COc2cc(Cl)cc(OC(F)(F)F)c2)cc1F)C1CC1` (centres undefined), the IC50 was 8.67 nM.

Source of the values: ChEMBL document CHEMBL5727951, “Substituted benzamides and methods of use thereof” (2020).
